Data reported in publication PMC10397409, “The action of physiological and synthetic steroids on the calcium channel CatSper in human sperm” (Frontiers in Cell and Developmental Biology, 2023).
Read-outs that look alike come from different tables or passages of the source.

What was measured:
human sperm = assay: Sperm penetration in viscous media (modified Kremer test); format: cell-based; settings: steroids 10 µM, P4 5 µM, 1 h, 1% methylcellulose
Experimental: The ability of sperm to penetrate in viscous media similar in viscosity to that found in the female reproductive tract was assessed using the modified Kremer test, as previously described ([Rahban et al., 2021]). Briefly, swim-up recovered and capacitated sperm cells at 3 x 10^6/mL were incubated in the absence (DMSO) or presence of steroids (10 µM), or P4 (5 µM) as a positive control for 1 h at 37°C. A glass capillary (0.2 × 4.0 × 50 mm, CM scientific, UK) was filled with 1% (w/v) methylcellulose (MC, 4000 centipoises cP) prepared with HTF media supplemented with 3 mg/mL HSA, respective compounds (10 µM), P4 (5 µM), or DMSO. The glass capillary tube was then sealed on one end with wax (Vitrex, UK) and added to the sperm cells on the open end. Sperm penetration was assessed after 1 h of incubation at 37°C by counting sperm at 1 cm using a microscope with a ×10 objective.

[1] = ref Löfgren and Bäckström (1990), cited from earlier work
CatSper = target: T1, CatSper (Homo sapiens, UniProt Q7RTX7+Q86XQ3+Q8NEC5+Q96P56); assay: Cross-desensitization: P4 dose-response after pre-incubation with steroid at 10 µM; format: cell-based; settings: in the presence of predicted steroid at 10 µM, normalized to DMSO; P4 = control curve; n = 3; read-out: EC50 generated from concentration-response curves of P4-induced [Ca2+]i influx
T1 construct: Motile spermatozoa were selected by a ‘swim-up’ procedure; endogenous in cells; host or cells: motile human spermatozoa (swim-up) from healthy donors

SMILES | number of sperm penetrating viscous medium at 1 cm (human sperm) | Maximum serum level ([1]; female) | Maximum serum level ([1]; male) | EC50 (CatSper) [nM]
C[C@]12Cc3c[nH]nc3C[C@@H]1CC[C@@H]1[C@@H]2CC[C@@]2(C)[C@H]1CC[C@]2(C)O [Stanozolol] | significant increase in cell number |  |  | 
CC(=O)[C@H]1CC[C@H]2[C@@H]3CCC4=CC(=O)CC[C@]4(C)[C@H]3CC[C@]12C [Progesterone] |  | 60 nM (female) | 3 nM (male) | 5
